According to patent US10308671B2, “Water-soluble derivatives of 3,5-diphenyl-diazole compounds” (Max-Planck-Gesellschaft zur Förderung, priority 2015, dated 2019):
Values after ≈ are worked out from the molar mass of the structure shown. Read-outs that look alike come from different tables or passages of the source.

Tests used:
Solubility in water = format: physicochemical; conditions: for solubility: water
[1] = Water-solubility test (visual inspection); format: physicochemical
Protocol: The solubility of each compound in the water was evaluated by following protocol. Deionized water (1 ml) was added into glass tube containing 10 mg of compound. After shaking for 10 minutes the sample was visually inspected and formation of solution or suspension was documented.

[2] = Pharmacokinetics in rats after single oral dose: anle138b in PEG/Cremophor (Phase 1) vs sery433 in aqueous buffer (Phase 2); format: in vivo, male Sprague Dawley rats; conditions: anle138b combined with excipients based on PEG/cremophor
Protocol: In the experiment, a single oral dose of anle138b in PEG/Cremophor (“Phase 1”) and sery433 in aqueous solution (“Phase 2”) at a nominal dose of 10 mg/kg were administered to male Sprague Dawley Rats. The experiments were conducted with three rats which are identified as “1M”, “2M” and “3M”.
This study was designed to assess the pharmacokinetics of anle138b and sery433 in male Sprague Dawley rats following single oral administration of anle138b (Phase 1) and sery433 (Phase 2). During Phase 1 and Phase 2 animals received each test compound, appropriately formulated, on one of two separate dose occasions in a cross over design. The dose level was 10 mg/kg for both compounds. The amount of sery433 was not corrected to the amount of anle138b which is present in the prodrug, so that due to the higher molecular weight of sery433 actually a lower amount of active agent was administered.
Phase 1: three naïve male CD rats were dosed orally with anle138b at a target dose level of 10 mg/kg.
Phase 2: one week later (wash out period), sery433 at a target dose of 10 mg/kg was administered orally to the same animals.
During each phase an individual serial plasma profile was drawn from each animal over a period of 24 hours after dosing.
The vehicle was prepared by weighing Cremophor RH40 (45% of final volume); PEG400 (35% of final volume) and Capryol 90 (20% of final volume). […]

CN(C)c1ccc(-c2cc(-c3cccc(Br)c3)[nH]n2)cc1 [Anle253b, 5-(3-Bromophenyl)-3-(4-dimethylaminophenyl)-1H-pyrazole]
solubility (in words) (Solubility in water): even less soluble than anle138b

Brc1cccc(-c2cc(-c3ccc4c(c3)OCO4)n[nH]2)c1 [anle138b, 5-(3-Bromophenyl)-3-(3,4-methylenedioxyphenyl)-1H-pyrazole]
Result of solubility test ([1]; 10 mg compound in 1 ml deionized water, shaking 10 minutes, visual inspection): insoluble | solubility at 10 min ([1]; deionized water, water, thermodynamic from solid, read-out: amount soluble in water): 0.0686 µg/mL (≈ 0.2 µM) | solubility (Solubility in water; read-out: solubility in water): 0.2 µM | solubility (Solubility in water; restates 0.2 μM, read-out: water-solubility): 0.07 µg/mL | anle138b exposure relative to the exposure reached by administration of sery433 [2]: 25%
